# What was measured:
# [1] = Phase III trial of empagliflozin as add-on to existing therapy for 52 weeks in patients with T2DM and renal impairment: eGFR (MDRD) over time; assay type: in vivo, human; details: for End-of treatment eGFR Mean / End-of treatment eGFR Mean change from baseline / eGFR at week 52 (in words): week 52
# From the text: (§1) For the purpose of the present invention, the estimated glomerular filtration rate (eGFR) is derived from the serum creatinine (SCr) value based on the MDRD formula below: eGFR (mL/min/1.73m2)=175×[SCr (μmol/L)/88.4]-1.154×[age]-0.203×[0.742 if patient is female]×[1.212 if patient is of African origin]
# A Phase III trial investigated the efficacy and safety of empagliflozin (EMPA) as add-on to existing therapy for 52 weeks in patients with T2DM and RI. Patients with mild RI (eGFR [MDRD equation]≥60 to<90 mL/min/1.73 m^2) received EMPA 10 or 25 mg qd or placebo (PBO). Patients with moderate RI (eGFR≥30 to<60 mL/min/1.73 m^2) received EMPA 25 mg qd or PBO. Patients with severe RI (eGFR[…] to<30 mL/min/1.73 m^2) received EMPA 25 mg qd or PBO.
# [2] = Phase III trial of empagliflozin once daily over 12 weeks in hypertensive patients with T2DM: eGFR (MDRD) over time; assay type: in vivo, human
# Experimental: as §1
# A Phase III trial investigated the efficacy and safety of empagliflozin (EMPA) administered orally, once daily over 12 weeks in hypertensive patients with T2DM (EMPA 10 or 25 mg, placebo (PBO)). Patients with a systolic blood pressure (SBP) of 130 to 159 mmHg and a diastolic blood pressure (DSP) of 80 to 99 mmHg were included in the trial.
# [3] = Phase IIb trial of empagliflozin once daily over 78 weeks in patients with T2DM receiving basal insulin: eGFR (MDRD) over time; assay type: in vivo, human
# Experimental: as §1
# A Phase IIb trial investigated the efficacy and safety of empagliflozin (EMPA 10 or 25 mg, placebo (PBO)) administered orally, once daily over 78 weeks in patients with T2DM receiving treatment with basal insulin (glargine, detemir, or NPH insulin only).
# [4] = 52 week renal impairment study: urine albumin/creatinine ratio (UACR) by baseline UACR category; assay type: in vivo, human; details: for Frequency of patients, last value on-treatment Macroalbuminuria, % / Frequency of patients, last value on-treatment Microalbuminuria, % / Frequency of patients, last value on-treatment Normal, % / Urine albumin-to-creatinine ratio, change from baseline, Mean: week 52; for mean urine albumin/creatinine ratio values (in words): patients with microalbuminuria at baseline
# Experimental: In a dedicated 52 week renal impairment study, patients were categorised based on their urine albumin/creatinine ratio (UACR) values at baseline, and 3 categories of patients were distinguished: patients with normal urine albumin/creatinine ratio values (<30 mg/g), patients with microalbuminuria (30 to<300 mg/g) and patients with macroalbuminurea (≥300 mg/g).
# Categories for urine albumin-to-creatinine ratio: normal:<30 mg/g, microalbuminuria 30 to<300 mg/g, macroalbuminuria:≥300 mg/g
# [5] = metformin on its own, in the diabetic; cited from earlier work
# [6] = mild renal impairment, Empa 10 mg qd, 3-week follow up visit
# [7] = mild renal impairment, Empa 10 mg qd
# [8] = mild renal impairment, Empa 25 mg qd, 3-week follow up visit
# [9] = mild renal impairment, Empa 25 mg qd
# [10] = moderate renal impairment, Empa 25 mg qd, 3-week follow-up visit
# [11] = moderate renal impairment, Empa 25 mg qd
# [12] = severe renal impairment, Empa 25 mg qd, 3-week follow-up visit
# [13] = severe renal impairment, Empa 25 mg qd
# [14] = Empa 10 mg once daily, 2-week follow up visit
# [15] = Empa 25 mg once daily, 2-week follow up visit
# [16] = T2DM on basal insulin, Empa 10 mg once daily, 4-week follow up visit
# [17] = T2DM on basal insulin, Empa 10 mg once daily
# [18] = T2DM on basal insulin, Empa 25 mg once daily, 4-week follow up visit
# [19] = T2DM on basal insulin, Empa 25 mg once daily
# [20] = Empa 10 mg, baseline Macroalbuminuria
# [21] = Empa 10 mg, baseline Microalbuminuria
# [22] = Empa 10 mg, baseline UACR Normal
# [23] = Empa 25 mg, baseline Macroalbuminuria
# [24] = Empa 25 mg, baseline Microalbuminuria
# [25] = Empa 25 mg, baseline UACR Normal
compound,measurement,setting,value
"OC[C@H]1O[C@@H](c2ccc(Cl)c(Cc3ccc(O[C@H]4CCOC4)cc3)c2)[C@H](O)[C@@H](O)[C@@H]1O [Empa, 1-chloro-4-(β-D-glucopyranos-1-yl)-244-((S)-tetrahydrofuran-3-yloxy)-benzylFbenzene]",Follow-up eGFR Mean,[1]; [6],69.84 mL/min/1.73 m^2
same,Follow-up eGFR Mean change from baseline,[1]; [6],2.06 mL/min/1.73 m^2
same,Baseline eGFR Mean,[1]; [7],68.42 mL/min/1.73 m^2
same,End-of treatment eGFR Mean,[1]; [7],68.07 mL/min/1.73 m^2
same,End-of treatment eGFR Mean change from baseline,[1]; [7],−0.76 mL/min/1.73 m^2
same,Follow-up eGFR Mean,[1]; [8],73.38 mL/min/1.73 m^2
same,Follow-up eGFR Mean change from baseline,[1]; [8],1.28 mL/min/1.73 m^2
same,Baseline eGFR Mean,[1]; [9],72.01 mL/min/1.73 m^2
same,End-of treatment eGFR Mean,[1]; [9],66.25 mL/min/1.73 m^2
same,End-of treatment eGFR Mean change from baseline,[1]; [9],−5.67 mL/min/1.73 m^2
same,mean eGFR at follow up (in words),"[1]; mild renal impairment, empagliflozin 10 and 25 mg, 3-week follow up visit",increased to a value slightly above baseline
same,eGFR at week 52 (in words),"[1]; mild renal impairment, empagliflozin 10 and 25 mg",small decrease in eGFR
same,Follow-up eGFR Mean,[1]; [10],45.39 mL/min/1.73 m^2
same,Follow-up eGFR Mean change from baseline,[1]; [10],1.48 mL/min/1.73 m^2
same,Baseline eGFR Mean,[1]; [11],43.84 mL/min/1.73 m^2
same,End-of treatment eGFR Mean,[1]; [11],40.58 mL/min/1.73 m^2
same,End-of treatment eGFR Mean change from baseline,[1]; [11],−3.55 mL/min/1.73 m^2
same,mean eGFR at follow-up (in words),"[1]; moderate renal impairment, empagliflozin 25 mg, 3-week follow-up visit",increased to a value slightly above baseline
same,eGFR at week 52 (in words),"[1]; moderate renal impairment, empagliflozin 25 mg",small decrease in eGFR
same,Follow-up eGFR Mean,[1]; [12],23.63 mL/min/1.73 m^2
same,Follow-up eGFR Mean change from baseline,[1]; [12],−0.59 mL/min/1.73 m^2
same,Baseline eGFR Mean,[1]; [13],24.22 mL/min/1.73 m^2
same,End-of treatment eGFR Mean,[1]; [13],20.23 mL/min/1.73 m^2
same,End-of treatment eGFR Mean change from baseline,[1]; [13],−3.98 mL/min/1.73 m^2
same,mean eGFR at follow-up (in words),"[1]; severe renal impairment, empagliflozin 25 mg, 3-week follow-up visit",increased to a value slightly below baseline
same,eGFR at week 52 (in words),"[1]; severe renal impairment, empagliflozin 25 mg",small decrease in eGFR
same,Follow-up eGFR Mean,[2]; [14],86.25 mL/min/1.73 m^2
same,Follow-up eGFR Mean change from baseline,[2]; [14],3.06 mL/min/1.73 m^2
same,Follow-up eGFR Mean change from last value on treatment,[2]; [14],3.32 mL/min/1.73 m^2
same,Baseline eGFR Mean,[2]; Empa 10 mg once daily,83.01 mL/min/1.73 m^2
same,Last value on treatment eGFR Mean,"[2]; Empa 10 mg once daily, week 12",82.70 mL/min/1.73 m^2
same,Last value on treatment eGFR Mean change from baseline,"[2]; Empa 10 mg once daily, week 12",−0.20 mL/min/1.73 m^2
same,Follow-up eGFR Mean,[2]; [15],86.60 mL/min/1.73 m^2
same,Follow-up eGFR Mean change from baseline,[2]; [15],2.75 mL/min/1.73 m^2
same,Follow-up eGFR Mean change from last value on treatment,[2]; [15],5.54 mL/min/1.73 m^2
same,Baseline eGFR Mean,[2]; Empa 25 mg once daily,83.97 mL/min/1.73 m^2
same,Last value on treatment eGFR Mean,"[2]; Empa 25 mg once daily, week 12",81.24 mL/min/1.73 m^2
same,Last value on treatment eGFR Mean change from baseline,"[2]; Empa 25 mg once daily, week 12",−2.60 mL/min/1.73 m^2
same,mean eGFR at follow up (in words),"[2]; empagliflozin 10 and 25 mg, 2-week follow up visit",increased to a value slightly above baseline
same,eGFR at week 12 (in words),"[2]; empagliflozin 10 and 25 mg, week 12",small decrease in eGFR
same,eGFR at follow-up Mean,[3]; [16],83.74
same,eGFR at follow-up Mean change from baseline,[3]; [16],−1.88
same,Baseline eGFR Mean,[3]; [17],85.01
same,Week 18 eGFR Mean,[3]; [17],80.37
same,Week 18 eGFR Mean change from baseline,[3]; [17],−4.98
same,Week 54 eGFR Mean,[3]; [17],82.55
same,Week 54 eGFR Mean change from baseline,[3]; [17],−5.68
same,Week 78 eGFR Mean,[3]; [17],81.86
same,Week 78 eGFR Mean change from baseline,[3]; [17],−5.52
same,eGFR at follow-up Mean,[3]; [18],81.35
same,eGFR at follow-up Mean change from baseline,[3]; [18],−0.79
same,Baseline eGFR Mean,[3]; [19],82.88
same,Week 18 eGFR Mean,[3]; [19],79.11
same,Week 18 eGFR Mean change from baseline,[3]; [19],−3.48
same,Week 54 eGFR Mean,[3]; [19],77.12
same,Week 54 eGFR Mean change from baseline,[3]; [19],−4.76
same,Week 78 eGFR Mean,[3]; [19],77.21
same,Week 78 eGFR Mean change from baseline,[3]; [19],−5.64
same,mean eGFR at follow up (in words),"[3]; T2DM on basal insulin, empagliflozin 10 and 25 mg, 4-week follow up visit",increased to a value slightly below baseline
same,eGFR on treatment (in words),"[3]; empagliflozin 10 and 25 mg, 78 weeks",small decrease in eGFR
same,"Frequency of patients, last value on-treatment Macroalbuminuria, %",[4]; [20],(33.3) %
same,"Frequency of patients, last value on-treatment Microalbuminuria, %",[4]; [20],(55.6) %
same,"Frequency of patients, last value on-treatment Normal, %",[4]; [20],(11.1) %
same,"Frequency of patients, last value on-treatment Macroalbuminuria, %",[4]; [21],(11.1) %
same,"Frequency of patients, last value on-treatment Microalbuminuria, %",[4]; [21],(61.1) %
same,"Frequency of patients, last value on-treatment Normal, %",[4]; [21],(27.8) %
same,"Frequency of patients, last value on-treatment Microalbuminuria, %",[4]; [22],(10.6) %
same,"Frequency of patients, last value on-treatment Normal, %",[4]; [22],(89.4) %
same,"Frequency of patients, last value on-treatment Macroalbuminuria, %",[4]; [23],(67.1) %
same,"Frequency of patients, last value on-treatment Microalbuminuria, %",[4]; [23],(30.1) %
same,"Frequency of patients, last value on-treatment Normal, %",[4]; [23],(2.7) %
same,"Frequency of patients, last value on-treatment Macroalbuminuria, %",[4]; [24],(3.8) %
same,"Frequency of patients, last value on-treatment Microalbuminuria, %",[4]; [24],(72.2) %
same,"Frequency of patients, last value on-treatment Normal, %",[4]; [24],(24.1) %
same,"Frequency of patients, last value on-treatment Microalbuminuria, %",[4]; [25],(10.6) %
same,"Frequency of patients, last value on-treatment Normal, %",[4]; [25],(89.4) %
same,"Urine albumin-to-creatinine ratio, change from baseline, Mean","[4]; Empagliflozin 10 mg, patients Normal (<30 mg/g) at baseline",4.0 mg/g
same,"Urine albumin-to-creatinine ratio, change from baseline, Mean","[4]; Empagliflozin 10 mg, patients with Macroalbuminuria at baseline",-716.3 mg/g
same,"Urine albumin-to-creatinine ratio, change from baseline, Mean","[4]; Empagliflozin 10 mg, patients with Microalbuminuria at baseline",7.4 mg/g
same,"Urine albumin-to-creatinine ratio, change from baseline, Mean","[4]; Empagliflozin 25 mg, patients Normal (<30 mg/g) at baseline",6.0 mg/g
same,"Urine albumin-to-creatinine ratio, change from baseline, Mean","[4]; Empagliflozin 25 mg, patients with Macroalbuminuria at baseline",-799.9 mg/g
same,"Urine albumin-to-creatinine ratio, change from baseline, Mean","[4]; Empagliflozin 25 mg, patients with Microalbuminuria at baseline",-39.4 mg/g
same,"Shifts between UACR categories from macro- or microalbuminuria towards normal and from macro- to microalbuminuria, versus placebo (in words)","[4]; baseline to end of treatment, empagliflozin treatment groups",higher frequency
same,mean urine albumin/creatinine ratio (in words),"[4]; patients with macroalbuminuria at baseline, empagliflozin groups",decrease in mean urine albumin/creatinine ratio
same,mean urine albumin/creatinine ratio values (in words),[4]; empagliflozin 10 mg,remained nearly unchanged
same,mean urine albumin/creatinine ratio values (in words),[4]; empagliflozin 25 mg,decreased
CN(C)C(=N)N=C(N)N [metformin],average improvement in the HbA1c value,[5],1.0-1.5%

# Source: patent publication US11666590B2, “Pharmaceutical composition, methods for treating and uses thereof” (Boehringer Ingelheim International GmbH, priority 2013, dated 2023)
